Data taken from patent US11339130B1 (Blade Therapeutics, Inc., priority 2016, dated 2022).

Experiments:
Human Calpain 1/NS1 = biological target: T1, Human Calpain 1/NS1 (Homo sapiens, UniProt P07384); assay: Calpain inhibition continuous fluorescence (FRET) assay, Human Calpain 1/NS1; assay type: biochemical; details: read-out: Human Calpain 1/NS1 IC50
T1 sequence (P07384 1-714): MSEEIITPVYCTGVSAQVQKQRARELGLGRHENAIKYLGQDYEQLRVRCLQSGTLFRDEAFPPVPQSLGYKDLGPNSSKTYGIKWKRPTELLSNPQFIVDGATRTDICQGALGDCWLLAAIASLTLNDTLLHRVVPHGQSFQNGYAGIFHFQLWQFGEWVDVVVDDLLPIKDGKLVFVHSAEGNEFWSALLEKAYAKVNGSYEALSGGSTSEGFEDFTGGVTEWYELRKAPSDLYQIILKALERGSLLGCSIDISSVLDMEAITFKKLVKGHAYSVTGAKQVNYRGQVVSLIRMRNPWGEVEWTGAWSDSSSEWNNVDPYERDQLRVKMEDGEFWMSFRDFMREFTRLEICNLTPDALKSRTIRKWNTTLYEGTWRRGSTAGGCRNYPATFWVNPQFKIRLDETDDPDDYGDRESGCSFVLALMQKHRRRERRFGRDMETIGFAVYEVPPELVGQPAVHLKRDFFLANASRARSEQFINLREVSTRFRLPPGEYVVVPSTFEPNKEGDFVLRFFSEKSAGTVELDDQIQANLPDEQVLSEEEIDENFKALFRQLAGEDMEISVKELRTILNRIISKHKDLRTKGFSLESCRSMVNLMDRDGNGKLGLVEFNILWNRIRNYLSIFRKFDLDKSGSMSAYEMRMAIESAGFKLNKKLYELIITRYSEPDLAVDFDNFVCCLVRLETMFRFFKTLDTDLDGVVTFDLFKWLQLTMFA
T1 sequence (P04632 1-268 partner): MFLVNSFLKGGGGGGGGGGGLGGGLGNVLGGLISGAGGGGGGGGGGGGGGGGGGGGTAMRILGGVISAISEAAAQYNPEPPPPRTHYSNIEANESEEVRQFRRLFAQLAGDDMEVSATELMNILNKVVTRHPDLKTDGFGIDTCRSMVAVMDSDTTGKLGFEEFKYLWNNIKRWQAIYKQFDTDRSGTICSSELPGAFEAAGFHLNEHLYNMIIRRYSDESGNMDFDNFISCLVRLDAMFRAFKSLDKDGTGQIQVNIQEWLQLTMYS
Procedure, shortened: (§1)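 Fluorescence increase from the cleaved 5-FAM/QXL 520 substrate, read at 490/520 nm, gave activity. Calcium was supplied with the substrate to activate the enzyme in situ after a 25C enzyme-inhibitor preincubation, and IC50s were fit from initial slopes.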

Human Calpain 2/NS1 = biological target: T2, Human Calpain 2/NS1 (Homo sapiens, UniProt P17655); assay: Calpain inhibition continuous fluorescence (FRET) assay, Human Calpain 2/NS1; assay type: biochemical; details: read-out: Human Calpain 2/NS1 IC50
T2 sequence (P17655 1-700): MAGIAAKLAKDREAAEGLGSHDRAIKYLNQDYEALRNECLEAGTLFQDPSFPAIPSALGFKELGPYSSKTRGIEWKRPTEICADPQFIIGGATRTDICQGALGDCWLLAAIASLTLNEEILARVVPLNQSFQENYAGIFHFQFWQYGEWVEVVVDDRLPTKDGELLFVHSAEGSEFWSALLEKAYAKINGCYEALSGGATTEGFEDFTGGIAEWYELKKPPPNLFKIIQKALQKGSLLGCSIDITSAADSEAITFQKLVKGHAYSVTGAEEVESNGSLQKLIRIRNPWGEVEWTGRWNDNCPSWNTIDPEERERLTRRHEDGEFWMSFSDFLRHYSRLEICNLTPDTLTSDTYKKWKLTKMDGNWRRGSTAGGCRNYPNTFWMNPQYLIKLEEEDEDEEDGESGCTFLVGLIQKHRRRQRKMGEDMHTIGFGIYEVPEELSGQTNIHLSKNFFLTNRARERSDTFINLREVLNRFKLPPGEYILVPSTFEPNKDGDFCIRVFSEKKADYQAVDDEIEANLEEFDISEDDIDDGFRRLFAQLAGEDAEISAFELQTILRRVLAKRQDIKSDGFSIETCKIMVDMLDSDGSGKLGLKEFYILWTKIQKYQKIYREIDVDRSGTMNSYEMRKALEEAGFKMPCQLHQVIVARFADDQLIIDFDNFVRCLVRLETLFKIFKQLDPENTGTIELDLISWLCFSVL
T2 sequence (P04632 1-268 partner): T1 sequence (P04632 1-268 partner)
Procedure, shortened: as §1

Human Calpain 9/NS1 = biological target: T3, Human Calpain 9/NS1 (Homo sapiens, UniProt O14815); assay: Calpain inhibition continuous fluorescence (FRET) assay, Human Calpain 9/NS1; assay type: biochemical; details: read-out: Human Calpain 9/NS1 IC50
T3 sequence (O14815 1-690): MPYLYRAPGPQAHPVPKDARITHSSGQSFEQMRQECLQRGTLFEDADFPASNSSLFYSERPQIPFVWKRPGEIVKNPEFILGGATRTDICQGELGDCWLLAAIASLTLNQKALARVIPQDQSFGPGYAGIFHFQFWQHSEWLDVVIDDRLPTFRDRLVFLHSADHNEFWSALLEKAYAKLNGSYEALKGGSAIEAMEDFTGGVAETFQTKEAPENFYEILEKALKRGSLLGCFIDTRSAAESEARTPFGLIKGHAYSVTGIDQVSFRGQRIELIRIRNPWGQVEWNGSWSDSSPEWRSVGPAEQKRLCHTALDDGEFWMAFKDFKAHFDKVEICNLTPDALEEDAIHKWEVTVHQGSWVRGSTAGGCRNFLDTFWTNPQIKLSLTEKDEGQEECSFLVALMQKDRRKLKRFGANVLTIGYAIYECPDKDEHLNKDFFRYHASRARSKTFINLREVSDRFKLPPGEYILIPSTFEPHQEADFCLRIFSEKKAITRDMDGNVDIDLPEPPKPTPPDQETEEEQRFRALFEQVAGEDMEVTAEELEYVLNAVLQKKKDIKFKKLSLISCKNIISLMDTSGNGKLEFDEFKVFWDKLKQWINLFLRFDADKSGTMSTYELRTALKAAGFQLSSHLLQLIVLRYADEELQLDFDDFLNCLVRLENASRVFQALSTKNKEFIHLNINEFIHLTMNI
T3 sequence (P04632 1-268 partner): T1 sequence (P04632 1-268 partner)
Procedure, shortened: as §1

[1] = system: Calpain activity in SH-SY5Y cells (SBDP-150); assay: SH-SY5Y Spectrin western blot assay (SBDP-150 breakdown product, A23187-induced); assay type: cell-based; details: Homo sapiens; SH-SY5Y cells, A23187-induced SBDP-150, western blot; read-out: SH-SY5Y Spectrin IC50
[2] = system: Calpain activity in SH-SY5Y cells; assay: SH-SY5Y + AMC fluorescence assay (Suc-LLVY-AMC substrate); assay type: cell-based; details: read-out: SH-SY5Y + AMC IC50

IC50 (Human Calpain 1/NS1) [µM]	IC50 (Human Calpain 2/NS1) [µM]	IC50 (Human Calpain 9/NS1) [µM]	IC50 [1] [µM]	IC50 [2] [µM]	SMILES
< 3	< 3	< 3	< 10	> 25	O=CC(Cc1ccccc1)NC(=O)c1nsnc1-c1ccccc1 (centres unmarked) [Compound 401, N-(1-oxo-3-phenylpropan-2-yl)-4-phenyl-1,2,5-thiadiazole-3-carboxamide]
< 3	< 3	< 3	10 to 25	> 25	Cc1nc(-c2ccccc2F)c(C(=O)NC(C=O)Cc2ccccc2)o1 (centres unmarked) [Compound 402, 4-(2-fluorophenyl)-2-methyl-N-(1-oxo-3-phenylpropan-2-yl)oxazole-5-carboxamide]
< 3	< 3	< 3	10 to 25	10 to 25	COc1cccc(-c2nn(C)cc2C(=O)NC(Cc2ccccc2)C(=O)C(N)=O)c1 (centres unmarked) [Compound 407, N-(4-amino-3,4-dioxo-1-phenylbutan-2-yl)-3-(3-methoxyphenyl)-1-methyl-1H-pyrazole-4-carboxamide]
> 10	3 to 10	> 10	10 to 25	< 10	Cn1cc(C(=O)NC(Cc2ccccc2)C(=O)C(N)=O)c(Cn2ncc3cnccc32)n1 (centres unmarked) [Compound 408, 3-((1H-pyrazolo[4,3-c]pyridin-1-yl)methyl)-N-(4-amino-3,4-dioxo-1-phenylbutan-2-yl)-1-methyl-1H-pyrazole-4-carboxamide]
< 3	< 3	< 3	> 25	> 25	N#Cc1ccc(-c2nn(C3CC3)cc2C(=O)NC(Cc2ccccc2)C(=O)C(N)=O)cn1 (centres unmarked) [Compound 413, N-(4-amino-3,4-dioxo-1-phenylbutan-2-yl)-3-(6-cyanopyridin-3-yl)-1-cyclopropyl-1H-pyrazole-4-carboxamide]
< 3	< 3	< 3	> 25	> 25	CC(C)C[C@H](NC(=O)c1cn(C)nc1-c1ccccc1)C(=O)C(N)=O [Compound 415, (S)—N-(1-amino-5-methyl-1,2-dioxohexan-3-yl)-1-methyl-3-phenyl-1H-pyrazole-4-carboxamide]
< 3	< 3	< 3	> 25	> 25	Cn1cc(C(=O)N[C@@H](CC(C)(C)C)C(=O)C(N)=O)c(-c2ccccc2)n1 [Compound 416, (S)—N-(1-amino-5,5-dimethyl-1,2-dioxohexan-3-yl)-1-methyl-3-phenyl-1H-pyrazole-4-carboxamide]
< 3	< 3	< 3	> 25	> 25	Cn1cc(C(=O)NC(CCc2ccccc2)C(=O)C(N)=O)c(-c2ccccc2)n1 (centres unmarked) [Compound 417, N-(1-amino-1,2-dioxo-5-phenylpentan-3-yl)-1-methyl-3-phenyl-1H-pyrazole-4-carboxamide]
< 3	< 3	< 3	10 to 25	10 to 25	Cn1cc(C(=O)NC(Cc2cc(Cl)cc(Cl)c2)C(=O)C(N)=O)c(-c2ccccc2)n1 (centres unmarked) [Compound 418, N-(4-amino-1-(3,5-dichlorophenyl)-3,4-dioxobutan-2-yl)-1-methyl-3-phenyl-1H-pyrazole-4-carboxamide]
< 3	< 3	< 3	10 to 25	> 25	CCCC[C@H](NC(=O)c1cn(C)nc1-c1ccccc1)C(=O)C(N)=O [Compound 419, (S)—N-(1-amino-1,2-dioxoheptan-3-yl)-1-methyl-3-phenyl-1H-pyrazole-4-carboxamide]
< 3	< 3	< 3	< 10	> 25	COc1ccc(C[C@H](NC(=O)c2cn(C)nc2-c2ccccc2)C(=O)C(N)=O)cc1 [Compound 420, (S)—N-(4-amino-1-(4-methoxyphenyl)-3,4-dioxobutan-2-yl)-1-methyl-3-phenyl-1H-pyrazole-4-carboxamide]
< 3	< 3	< 3	10 to 25	< 10	Cn1cc(C(=O)N[C@@H](Cc2ccc(O)cc2)C(=O)C(N)=O)c(-c2ccccc2)n1 [Compound 421, (S)—N-(4-amino-1-(4-hydroxyphenyl)-3,4-dioxobutan-2-yl)-1-methyl-3-phenyl-1H-pyrazole-4-carboxamide]
> 10	3 to 10	3 to 10	> 25	> 25	Cn1cc(C(=O)NC(CCC(F)(F)F)C(=O)C(N)=O)c(-c2ccccc2)n1 (centres unmarked) [Compound 422, N-(1-amino-6,6,6-trifluoro-1,2-dioxohexan-3-yl)-1-methyl-3-phenyl-1H-pyrazole-4-carboxamide]
< 3	< 3	< 3	< 10	< 10	Cn1cc(C(=O)N[C@@H](Cc2c[nH]c3ccccc23)C(=O)C(N)=O)c(-c2ccccc2)n1 [Compound 423, (S)—N-(4-amino-1-(1H-indol-3-yl)-3,4-dioxobutan-2-yl)-1-methyl-3-phenyl-1H-pyrazole-4-carboxamide]
3 to 10	< 3	< 3	10 to 25	> 25	Cn1cc(C(=O)NC(CC(F)(F)F)C(=O)C(N)=O)c(-c2ccccc2)n1 (centres unmarked) [Compound 424, N-(5-amino-1,1,1-trifluoro-4,5-dioxopentan-3-yl)-1-methyl-3-phenyl-1H-pyrazole-4-carboxamide]
< 3	< 3	< 3	< 10	> 25	Cc1cc(C(=O)NC(Cc2ccccc2)C(=O)C(N)=O)c(-n2cc3ccccc3n2)s1 (centres unmarked) [Compound 428, N-(4-amino-3,4-dioxo-1-phenylbutan-2-yl)-2-(2H-indazol-2-yl)-5-methylthiophene-3-carboxamide]
